Source: US8268772B2, “Depot preparations” (Symrise AG, priority 2001, dated 2012)

How the values were obtained:
[1] = Storage stability in soap formulation; format: physicochemical; conditions: stored in the dark about one month at room temperature
Text: (§1) (Amount after storage/Amount before storage)*100%=Storage stability [%]
The separate samples are then divided into portions.
The soap formulations A to F were stored in the dark for about one-month at room temperature.

[2] = Release rate during hair coloring (GC content after mixing developer mass with ammoniacal dye solution); format: physicochemical
Protocol: To determine the hydrolysis rate the three depot preparations DP Example 8, DP Example 9 and DP Example 10 were added to the developer mass in a concentration of in each case 0.3%. The ammoniacal dye solution, which consists of 2 to 16% ammonia and/or substitutes such as, for example, alkanolamines, in particular monoethanolamine, water, thickeners, emulsifier, bodying agents, reactive dyes, solvents, flexing agents, stabilizers and preservatives, is then added to the developer mass in the ratio 1:1. Samples are then taken from the hair dye solution at defined time intervals, neutralized and extracted with solvent, and the content of depot preparation and released aldehyde is determined by means of gas chromatography using an internal and external standard.

[3] = Storage stability in powder laundry detergent; conditions: after one month storage
Text: The storage stability of a fragrance or of a depot preparation is defined by the percentage of substance still present after storage. (Amount after storage/Amount before storage)*100%=Storage stability [%]
For the determination and for the comparison of the storage stability the depot preparation (DP) consisting of one or more acylals and the corresponding aldehydes (AL) are incorporated into separate samples. (SDP and SAL) of the same formulation of a consumer product, such as, for example, laundry detergent, shampoo or soap. The separate samples are then divided into portions. One portion of the sample SDP and SAL is subjected immediately to a suitable extraction and analytical measurement in order to determine the amount of depot preparation or aldehyde prior to storage. In the analytical investigation by, for example, gas chromatography, a suitable standard is used for quantification. The second portion is subjected to storage at elevated temperature for a defined period and then extracted and quantified using the same methods.
The laundry detergents A and B were used for washing or examined analytically both directly and after storage for four weeks.

[4] = Storage stability in hair colorant developer mass; format: physicochemical
Protocol: as §1
The formulation of the developer mass typically comprises water, hydrogen peroxide, acids, such as, for example, phosphoric acid, citric acid etc., thickeners, emulsifiers, preservatives, solvents and further auxiliaries. 1% of DP Example 5 is added to the formulation of the developer mass.
The developer formulation, which comprises 1% of DP Example 5, is stored for one and a half months at room temperature.

[5] = 1 min after mixing developer mass (0.3% each DP) 1:1 with ammoniacal dye solution
[6] = 5 min after mixing developer mass (0.3% each DP) 1:1 with ammoniacal dye solution
[7] = 10 min after mixing developer mass (0.3% each DP) 1:1 with ammoniacal dye solution
[8] = 20 min after mixing developer mass (0.3% each DP) 1:1 with ammoniacal dye solution
[9] = 30 min after mixing developer mass (0.3% each DP) 1:1 with ammoniacal dye solution

| SMILES | Storage stability [%] [1] [%] | Relative GC content [%] [2, 5] [%] | Relative GC content [%] [2, 6] [%] | Relative GC content [%] [2, 7] [%] | Relative GC content [%] [2, 8] [%] | Relative GC content [%] [2, 9] [%] | also measured |
| --- | --- | --- | --- | --- | --- | --- | --- |
| CC(C)(C)c1ccc(CCC=O)cc1 [Bourgeonal, 4-tert-Butyldihydrocinnamaldehyde, reference compound] | 27 |  |  |  |  |  |  |
| CCCC(=O)OC(OC(=O)CCC)C1CC=C(CCC=C(C)C)CC1 (stereo not shown) [DP Example 3, (Butyryloxy) [4-(4-methyl-3-pentenyl)-3-cyclohexen-1-yl]methyl butyrate] |  |  |  |  |  |  | Storage stability [3]: 93% |
| CC(C)=CCCC1=CCC(C=O)CC1 (stereo not shown) [Vertomugal, 1-Formyl-4-(4-methyl-3-pentenyl)-3-cyclohexene, reference compound] |  |  |  |  |  |  | Storage stability [3]: 34% |
| CCCCCCCCCC=O [Aldehyde C10, Decanal, reference compound] | 32 |  |  |  |  |  |  |
| O=Cc1ccccc1 [Benzaldehyde, reference compound] | 45 |  |  |  |  |  |  |
| CCCC(=O)OC(CCc1ccc(C(C)(C)C)cc1)OC(=O)CCC [DP Example 6, 3-(4-tert-Butylphenyl)-1-(butyryloxy)propyl butyrate] | 93 |  |  |  |  |  |  |
| CCCCCCCCCC(OC(=O)CCCCCC)OC(=O)CCCCCC [DP Example 7, 1-(Heptanoyloxy)decyl heptanoate] | 95 |  |  |  |  |  |  |
| CCCC(=O)OC(OC(=O)CCC)c1ccccc1 [DP Example 5, (Butyryloxy)(phenyl)methyl butyrate] | 93 |  |  |  |  |  | Stability [%] 0 days ([4]; 1% in developer mass, room temperature, 0 days): 100%; Stability [%] 13 days ([4]; 1% in developer mass, room temperature, 13 days): 100%; Stability [%] 28 days ([4]; 1% in developer mass, room temperature, 28 days): 98%; Stability [%] 42 days ([4]; 1% in developer mass, room temperature, 42 days): 100%; color, odor and analytical stability ([4]; developer mass, one and half months at room temperature): color, odor and analytically stable |
| CCCCCCCCCC(C)C=O (stereo not shown) [2-Methylundecanal, reference compound] |  | 2.8 | 32.8 | 47.1 | 20.7 | 16.4 |  |
| CCCCCCC=O [Aldehyde C7, heptanal, reference compound] |  | 1.4 | 17.1 | 19.3 | 12.2 | 11.4 |  |

The next lines start with results.

| Storage stability [%] [1] [%] | Relative GC content [%] [2, 5] [%] | Relative GC content [%] [2, 6] [%] | Relative GC content [%] [2, 7] [%] | Relative GC content [%] [2, 8] [%] | Relative GC content [%] [2, 9] [%] | SMILES | also measured |
| --- | --- | --- | --- | --- | --- | --- | --- |
|  | 28.9 | 2.5 | 0.5 | 0.0 | 0.0 | CC(=O)OC(OC(C)=O)C1CCC(C)=CC1C (stereo not shown) [DP Example 9, (Acetyloxy)(2,4-dimethyl-3-cyclohexen-1-yl)methyl acetate] |  |
|  | 48.2 | 5.1 | 2.0 | 0.0 | 0.0 | CCCCCCCCCC(C)C(OC(C)=O)OC(C)=O (stereo not shown) [DP Example 10, 1-(Acetyloxy)-2-methylundecyl acetate] |  |
|  | 22.9 | 0.0 | 0.0 | 0.0 | 0.0 | CCCCCCC(OC(C)=O)OC(C)=O [DP Example 8, 1-(Acetyloxy)heptyl acetate] |  |
|  | 2.1 | 33.6 | 33.6 | 19.3 | 15.7 | CC1=CC(C)C(C=O)CC1 (stereo not shown) [Vertocitral, reference compound] |  |
